“And” between values parts separate entries of the source, which are not always exact repeats. Equal entries are not always repeated.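 Five compound concentrations were applied to cells in 96-well plates for 48 hours; endpoints were derived by simple linear interpolation of the resulting dose-response curve. GI50 is the concentration that inhibits growth by half. At the TGI there is no net growth.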
Columns and labels:
Test in all cases: NCI anticancer screen, dose series, 48 h
HCC-2998 colon = tested on: HCC-2998 colon
HL-60(TB) leukemia = tested on: HL-60(TB) leukemia
HS 578T breast = tested on: HS 578T breast
M14 melanoma = tested on: M14 melanoma
MCF7 breast = tested on: MCF7 breast
NCI/ADR-RES ovarian = tested on: NCI/ADR-RES ovarian
RPMI-8226 leukemia = tested on: RPMI-8226 leukemia
SK-OV-3 ovarian = tested on: SK-OV-3 ovarian
SN12C renal = tested on: SN12C renal
TK-10 renal = tested on: TK-10 renal

Compound	GI50 (HCC-2998 colon)	TGI (HCC-2998 colon)	GI50 (HL-60(TB) leukemia)	TGI (HL-60(TB) leukemia)	GI50 (HS 578T breast)	TGI (HS 578T breast)	GI50 (M14 melanoma)	TGI (M14 melanoma)	GI50 (MCF7 breast)	TGI (MCF7 breast)	GI50 (NCI/ADR-RES ovarian)	TGI (NCI/ADR-RES ovarian)	GI50 (RPMI-8226 leukemia)	TGI (RPMI-8226 leukemia)	GI50 (SK-OV-3 ovarian)	TGI (SK-OV-3 ovarian)	GI50 (SN12C renal)	TGI (SN12C renal)	GI50 (TK-10 renal)	TGI (TK-10 renal)
Fc1c[c-]c(-c2ccccn2)c(F)c1.[CH3-].[Pt+2].c1ccc(P(C[PH+](c2ccccc2)c2ccccc2)c2ccccc2)cc1	0.484 µM	1.29 µM	0.38 µM	1.56 µM	0.864 µM	2.9 µM	0.71 µM	2.31 µM	0.577 µM	2.98 µM	2.53 µM	11.9 µM	0.262 µM	1.87 µM	0.816 µM	6.03 µM	0.502 µM	1.77 µM	0.991 µM	3.39 µM
NC(=O)c1cc(I)ccc1NC(=O)COc1ccccc1	2.5 µM	> 100 µM	0.335 µM	27.8 µM	0.462 µM	36.1 µM	0.403 µM	> 100 µM	0.279 µM	> 100 µM	0.329 µM	5.43 µM	0.679 µM	> 100 µM	3.21 µM	> 69.1 µM	2.3 µM	> 100 µM	5.38 µM	50.9 µM
O=C(O)C1C(C(=O)O)C2(Cl)C(Cl)=C(Cl)C1(Cl)C2(Cl)Cl.[Cd] (configuration not stated)	22.6 µM	47.7 µM	28.4 µM	72.1 µM	23.5 µM	> 87 µM	19.2 µM	38.9 µM	17.3 µM	35.9 µM	28.6 µM	80.3 µM	6.64 µM	48.4 µM	19.6 µM	36.2 µM	18.4 µM	36.1 µM	19 µM	34.7 µM
C=CC(=O)Nc1cccc(Nc2nc(Nc3ccc(OCCOC(F)F)cc3)ncc2F)c1	12.6 µM	47.6 µM	2.02 µM	10.4 µM	2.13 µM	8.77 µM	2.54 µM	18.8 µM	3 µM	41.2 µM	2.48 µM	19.7 µM	2.48 µM	14.7 µM	0.706 µM	3.34 µM	2.54 µM	16.2 µM	0.515 µM	2.93 µM
CC[C@@]1(O)C(=O)OCc2c1cc1n(c2=O)Cc2cc3c(N)cccc3nc2-1	0.0239 µM	1.39 µM		0.51 µM	0.0865 µM	> 60.7 µM	0.0042 µM	0.292 µM	0.00482 µM	4.85 µM	0.0158 µM and < 0.0151 µM	2.08 µM		4.72 µM		1.68 µM	0.00812 µM	> 23.3 µM		38.2 µM
Fc1cc(-c2nnc3n2N=C(c2ccc(Cl)cc2Cl)CS3)c(Cl)cc1Cl	35 µM	> 100 µM	> 100 µM	> 100 µM	33.6 µM	> 100 µM	37.5 µM	> 100 µM	31.3 µM	> 100 µM	30.8 µM	99.5 µM	25.3 µM	95.7 µM	48 µM	> 100 µM	56.4 µM	> 100 µM	77.3 µM	> 100 µM
CC1(C)C2CCC13C(=O)C1OC3(C2)C2C(=O)c3c(O)cccc3C(=O)C12 (configuration not stated)	1.94 µM	4.16 µM	0.355 µM	1.2 µM	0.988 µM	2.86 µM	3.24 µM	12.2 µM	3.37 µM	15.4 µM	2.1 µM	6.01 µM	0.177 µM	0.441 µM	10.9 µM	23.9 µM	0.711 µM	1.84 µM	0.979 µM	2.83 µM
CCCCCCCCCCCCCCCCS(=O)(=O)c1ccc(NN)cc1		> 10 µM		6.17 µM		> 10 µM		> 10 µM		> 10 µM		> 10 µM		> 10 µM		> 10 µM		> 10 µM		> 10 µM
O=C(Nc1ccccc1O)c1ccc(CNC(=O)c2ccsc2Nc2ccnc(C(F)(F)F)c2)cc1	1.84 µM	4.33 µM	2.86 µM	9.32 µM	2.71 µM	16.2 µM	2.61 µM	7.03 µM	2.03 µM	10.4 µM	2.23 µM	8.52 µM	1.14 µM	6.72 µM	5.59 µM	45.6 µM	4.13 µM	79.3 µM	2.1 µM	9.33 µM
O=C(O)Cn1ccnc1[N+](=O)[O-]		> 100 µM		> 100 µM		> 100 µM		> 100 µM		> 100 µM		> 100 µM		> 100 µM		> 100 µM		> 100 µM		> 100 µM
O=C(Nc1ccc(Cl)cc1)Nc1ccccc1CNc1nc(Nc2ccc(OCCN3CCCC3)cc2)ncc1Cl	1.22 µM	3.38 µM	1.05 µM	2.19 µM	7.02 µM	19 µM	0.832 µM	1.68 µM	0.895 µM	1.84 µM	1.16 µM	2.64 µM	1.24 µM	3.19 µM			0.913 µM	1.74 µM	0.982 µM	1.91 µM
COc1ccc2[nH]c(-c3ccccc3)cc2c1	> 100 µM	> 100 µM	> 100 µM	> 100 µM	> 100 µM	> 100 µM	> 100 µM	> 100 µM	86.6 µM	> 100 µM	> 100 µM	> 100 µM	43.2 µM	> 100 µM	> 100 µM	> 100 µM	> 100 µM	> 100 µM	> 100 µM	> 100 µM
O=C(Nc1cc(S(=O)(=O)c2ccc(Cl)cc2)ccc1Cl)c1cc(I)cc(I)c1O	13.2 µM	27.2 µM	14.5 µM	31.6 µM	17.8 µM	47.6 µM	17.6 µM	35 µM	18.4 µM	36.9 µM	18.7 µM	44.6 µM	0.0515 µM	0.833 µM	17.2 µM	31.5 µM	16.1 µM	34.8 µM	18.1 µM	34.2 µM
COc1ccc2c(c1)nc1n2C(c2ccc(F)cc2)SC1 (configuration not stated)	18.4 µM	57.1 µM	28.4 µM	> 100 µM	28.3 µM	70.5 µM	26.3 µM	83.5 µM	18.5 µM	> 100 µM	20.7 µM	45.8 µM	14.8 µM	66.3 µM	22.4 µM	> 100 µM	32.2 µM	> 100 µM	22.8 µM	> 100 µM
COc1cc2cc(Oc3ccc(NC(=O)c4cccc5c4OCCO5)cc3)c(C)nc2cc1OC	5.5 µM	> 100 µM	5.38 µM	> 100 µM	5.64 µM	> 100 µM	4.9 µM	> 100 µM	6.27 µM	> 100 µM	3.42 µM	> 100 µM	2.98 µM	> 100 µM	49.8 µM	> 100 µM	8.4 µM	> 100 µM	15.7 µM	> 100 µM
COc1ccc(-c2nc3c(c(=O)n2C(C)=O)C(c2ccc(Cl)cc2)c2sc4c(Cl)cccc4c2O3)cc1 (configuration not stated)	0.68 µM	2.48 µM	0.3 µM	0.982 µM	0.521 µM	4.44 µM	0.239 µM	0.973 µM	0.151 µM	1.37 µM	0.187 µM	0.919 µM	0.529 µM	5.1 µM	0.349 µM	2.09 µM	0.64 µM	2.23 µM	0.846 µM	2.67 µM
Cc1cc(NC(=O)NC(=O)c2ccccc2N(C)C)ccc1Oc1ncc(Br)cn1	1.1 µM	11.8 µM	0.0879 µM	0.388 µM and 0.981 µM		> 100 µM	0.428 µM	> 63.1 µM		29.2 µM		24.6 µM	0.517 µM	39.4 µM		16.8 µM	0.578 µM	> 100 µM	0.984 µM	> 68.1 µM
CCOCNc1ccc(N2C(=O)/C(=C/c3ccc(N(CC)CC)cc3)N=C2c2ccccc2)cc1	> 100 µM	> 100 µM	25 µM	> 100 µM	17 µM	> 100 µM	> 100 µM	> 100 µM	36.5 µM	> 100 µM	33.9 µM	> 100 µM	2.83 µM	> 100 µM	26.1 µM	82.9 µM	16.6 µM	> 100 µM	22.3 µM	> 100 µM
COc1ccc(NC(=O)c2sc3nc4c(cc3c2N)CCCC4)cc1	3.6 µM	> 100 µM	0.252 µM	0.624 µM	0.567 µM	> 100 µM	0.254 µM	1.28 µM	0.348 µM	> 100 µM	0.384 µM	3.85 µM	0.484 µM	12.1 µM	1.92 µM	> 100 µM	1.43 µM	> 100 µM		
COc1ccc(C(=O)C[C@]2(O)C(=O)Nc3c(Cl)ccc(Cl)c32)cc1	1.96 µM	> 100 µM	0.343 µM	3.06 µM	0.555 µM	> 100 µM	0.321 µM	> 100 µM	0.383 µM	> 100 µM	0.379 µM		0.589 µM	30 µM	1.89 µM	> 100 µM	0.87 µM	> 100 µM	> 29.4 µM	> 100 µM
Cc1ccc(-n2c3c(c4c(CN5CCOCC5)c(O)ccc42)CCc2ccccc2C3=O)cc1	> 100 µM	> 100 µM	19.9 µM	92.2 µM	> 100 µM	> 100 µM	> 100 µM	> 100 µM	> 100 µM	> 100 µM	39.1 µM	> 100 µM	21 µM	> 100 µM	> 100 µM	> 100 µM	46.9 µM	> 100 µM	> 100 µM	> 100 µM
Cc1n(Cc2ccc3ccccc3c2)c(Cl)c(Cl)[n+]1Cc1ccc2ccccc2c1	1.66 µM	3.14 µM	1.11 µM	3.55 µM	1.54 µM	3.79 µM	1.79 µM	3.99 µM	1.61 µM	3.37 µM	12 µM	29.6 µM	1.05 µM	3.12 µM	2.52 µM	9.62 µM	1.62 µM	3.03 µM	1.79 µM	3.53 µM
c1ccc(CC(NCCNC(Cc2ccccc2)c2ccccc2)c2ccccc2)cc1 (configuration not stated)	0.393 µM	1.55 µM	0.322 µM	0.89 µM	1.64 µM	4.12 µM	0.302 µM	1.01 µM	0.311 µM	1.14 µM	0.643 µM	2.2 µM	0.243 µM	0.524 µM	1.3 µM	3.93 µM	0.517 µM	1.96 µM	1.46 µM	4.21 µM
O=C(Cc1ccc(/C=C/C(=O)c2ncc[nH]2)cc1)Nc1ccc(C(F)(F)F)cc1	3.97 µM	8.61 µM	2.03 µM	20 µM	5.88 µM	> 33.3 µM	2.58 µM	9.25 µM	0.851 µM	4.31 µM	8.96 µM	> 33.3 µM	0.78 µM	1.83 µM	7.66 µM	26.3 µM	1.87 µM	8.02 µM	6.63 µM	13.8 µM
COC(=O)[C@H](Cc1ccccc1)NC(=O)c1csc([C@@H](C[C@H](C(C)C)N(C)C(=O)[C@@H](NC(=O)[C@H]2CCCN2C)C2CC2)OC(C)=O)n1	1.48 µM	> 33.3 µM	0.204 µM	1.9 µM	0.122 µM	> 33.3 µM	0.281 µM	> 33.3 µM	0.124 µM	> 33.3 µM	8.59 µM	> 33.3 µM	0.224 µM	> 33.3 µM	1.04 µM	> 33.3 µM	0.548 µM	> 33.3 µM	4.18 µM	> 33.3 µM

Source: PubChem BioAssay (NCI)
